{"source": "paper PMC9570898", "about": "“Comparing Variants of the Cell-Penetrating Peptide sC18 to Design Peptide-Drug Conjugates” (Molecules, 2022)", "key": {"HeLa cells": {"test_system": "HeLa cells", "assay": "Cytotoxicity (resazurin) assay in HeLa cells", "conditions": "24 h, 25 µM peptide, resazurin assay", "protocol": "For cell viability assay, cells were (15,000 HeLa, 17,000 MCF-7 and 12,000 HFF-1 cells per well) seeded onto a 96-well plate and grown to 80–90% confluency. Cells were incubated with several peptide concentrations in a serum-free growth medium for 24 h under standard growth conditions. For the positive control, cells were treated with 70% EtOH for 7 min. After washing with DPBS, resazurin solution (10% in serum-free media, v/v) was incubated with the cells for 1 h under standard growth conditions. The cell viability was determined relative to untreated cells by measurement of the resorufin product at 595 nm (λex = 550 nm) on a Tecan infinite M200 plate reader (Tecan Group AG, Männedorf, Switzerland).\nFigure 2 (A,B): Cytotoxicity profiles of the peptides in HeLa and HEK-293 cells. Cells were cultured and incubated at pH 7.4 for 24 h with different concentrations of peptide solutions. Untreated cells served as negative control; cells treated with 70% ethanol as positive control. Values from the positive control were subtracted from all data, and the untreated cells were set to 100%; assays were performed with n = 3 in triplicate. (C): Flow cytometry analysis of HeLa or HEK-293 cells after incubating 1 and 10 µM peptide solutions for 30 min at 37 °C; assays were conducted in triplicate n = 3. (D): Confocal laser scanning microscopy analysis of 10 µM CF-labeled peptides after 30 min of incubation in HeLa cells. Green: CF-labeled peptides; blue: Hoechst 33342 nuclear stain; scale bar is 10 µm.\nFigure 5 (A): Cytotoxicity assay using HFF-1 cells. Different PDC concentrations were incubated with the cells for 24 h at 37 °C and a resazurin assay was conducted. (B): Dose-response curves for peptide drug conjugates were obtained using the resazurin assay. For this, HeLa cells were treated with various conjugate concentrations (2.5–70 µM) for 24 h at 37 °C. (C): Quantification of PDC internalization in HeLa cells; 10 µM PDC solutions were incubated with cells for 30 min at 37 °C and cells were inspected using a flow cytometer; assays were conducted in triplicate n = 3."}, "HEK293 cells": {"test_system": "HEK293 cells", "assay": "Cellular uptake by flow cytometry in HEK293 cells", "type": "cell-based, human", "conditions": "1 and 10 µM CF-labeled peptide, 30 min, 37 °C, serum-free medium, triplicate n = 3", "protocol": "Monolayer cellular uptake was quantified using flow cytometry. Cells were seeded onto a 24-well plate (HeLa: 90,000, HEK293: 100,000 and MCF-7 130,000 cells per well) and grown to 80–90% confluency. Then, cells were incubated with the labeled peptides/conjugates in a serum-free medium at 37 °C for various incubation times, and subsequently washed twice with PBS and detached with indicator-free trypsin resuspended in an indicator-free serum-containing medium. The cell suspension was transferred into a 96-well FACS plate and fluorescence was then measured by a Guava easyCyte flow cytometer (Merck, Darmstadt, Germany).The blue laser was used for all measurements, FSC (1137–1538), SSC (3020–4086), Grn-B (647–875) and Red-B (694–939). Cellular autofluorescence of untreated control cells was subtracted."}}, "note": "No end group written: not given here."}
{"substance": "RLRKLLRKFLRK-NH2 [sC18*^R,L]", "values": [{"measurement": "cell viability at 25 µM", "setting": "HeLa cells", "value": "~35", "unit": "%"}, {"measurement": "cellular uptake", "setting": "HEK293 cells", "value": "highly significant and enhanced internalization"}]}
